Assay results from US6608070B1, “2,3-substituted indole compounds as anti-inflammatory and analgesic agents” (priority 1999, dated 2003).
One block for each molecule: values may come before it.

Compound: Cc1ccc(C(=O)c2[nH]c3cc(Cl)ccc3c2CC(=O)O)nc1 [Example 32, [6-Chloro-2-(5-methylpyridine-2-carbonyl)-1H-indol-3-yl]acetic Acid]
melting point: 235 to 238 °C

Compound: Cc1ccc(C(=O)c2[nH]c3ccc(Cl)cc3c2CC(=O)O)nc1 [Example 80, [5-Chloro-2-(5-methylpyridine-2-carbonyl)-1H-indol-3-yl]acetic Acid]
melting point: 247 to 248 °C

Compound: O=C(O)Cc1c(C(=O)c2ccccc2)[nH]c2cc(Cl)ccc12 [Example 2, (2-Benzoyl-6-chloro-1H-indol-3-yl)acetic Acid]
melting point: 183 to 186 °C

Compound: Cc1ccnc(C(=O)c2[nH]c3ccc(Cl)cc3c2CC(=O)O)c1C [Example 100, [5-Chloro-2-(3,4-dimethylpyridine-2-carbonyl)-1H-indol-3-yl]acetic Acid]
melting point: 236 to 237 °C

Compound: CCc1ccnc(C(=O)c2[nH]c3cc(Cl)ccc3c2CC(=O)O)c1 [Example 58, [6-Chloro-2-(4-ethylpyridine-2-carbonyl)-1H-indol-3-yl]acetic Acid]
melting point: 215 to 216 °C (dec.)

Compound: O=C(O)Cc1c(C(=O)c2nccs2)[nH]c2ccc(Cl)cc12 [Example 41, [5-Chloro-2-(thiazole-2-carbonyl)-1H-indol-3-yl]acetic Acid]
melting point: 230 to 231 °C

Compound: O=C(O)Cc1c(C(=O)c2ccc(Cl)cn2)[nH]c2cc(Cl)ccc12 [Example 88, [6-Chloro-2-(5-chloropyridine-2-carbonyl)-1H-indol-3-yl]acetic Acid]
melting point: 242 to 244 °C

Compound: O=C(O)Cc1c(C(=O)c2cccnc2)[nH]c2cc(Cl)ccc12 [Example 92, [6-Chloro-2-(pyridine-3-carbonyl)-1H-indol-3-yl]acetic Acid]
melting point: 267 to 268 °C

Compound: O=C(O)Cc1c(C(=O)c2cc(CO)ccn2)[nH]c2ccc(Cl)cc12 [Example 98, [5-Chloro-2-[4-(hydroxymethyl)pyridine-2-carbonyl]-1H-indol-3-yl]acetic Acid]
melting point: 218 to 219 °C

Compound: O=C(O)Cc1c(C(=O)c2cc(Cl)ccn2)[nH]c2ccc(Cl)cc12 [Example 90, [5-Chloro-2-(4-chloropyridine-2-carbonyl)-1H-indol-3-yl]acetic Acid]
melting point: 243 to 244 °C

Compound: Cc1cccc(C(=O)c2[nH]c3ccc(Cl)cc3c2CC(=O)O)n1 [Example 38, [5-Chloro-2-(6-methylpyridine-2-carbonyl)-1H-indol-3-yl]acetic Acid]
melting point: 225 to 226 °C

Compound: O=C(O)Cc1c(C(=O)c2ccncc2)[nH]c2cc(Cl)ccc12 [Example 94, [6-Chloro-2-(pyridine-4-carbonyl)-1H-indol-3-yl]acetic Acid]
melting point: 256 to 257 °C

Compound: Cc1cccc(C(=O)c2[nH]c3cc(Cl)ccc3c2CC(=O)O)n1 [Example 78, [6-Chloro-2-(6-methylpyridine-2-carbonyl)-1H-indol-3-yl]acetic Acid]
melting point: 230 to 231 °C

Compound: O=C(O)Cc1c(C(=O)c2cc(CO)ccn2)[nH]c2cc(Cl)ccc12 [Example 96, [6-Chloro-2-[4-(hydroxymethyl)pyridine-2-carbonyl]-1H-indol-3-yl]acetic Acid]
melting point: 210 to 212 °C

More lines, now with the values ahead:

melting point: 199 to 200 °C
Compound: Cc1cnc(C(=O)c2[nH]c3cc(Cl)ccc3c2CC(=O)O)c(C)c1 [Example 110, [6-Chloro-2-(3,5-dimethylpyridine-2-carbonyl)-1H-indol-3-yl]acetic Acid]

melting point: 226 to 228 °C
Compound: Cc1cnc(C(=O)c2[nH]c3cc(Cl)ccc3c2CC(=O)O)cc1C [Example 104, [6-Chloro-2-(4,5-dimethylpyridine-2-carbonyl)-1 H-indol-3-yl]acetic Acid]

melting point: 208 °C
Compound: CCc1ccnc(C(=O)c2[nH]c3ccc(Cl)cc3c2CC(=O)O)c1F [Example 112, [5-Chloro-2-(4-ethyl-3-fluoropyridine-2-carbonyl)-1H-indol-3-yl]acetic Acid]

melting point: 177 to 178 °C
Compound: O=C(O)Cc1c(C(=O)c2cccs2)[nH]c2cc(Cl)ccc12 [Example 236, [6-Chloro-2-(2-thienyl)carbonylindol-3-yl]acetic Acid]

melting point: 225 to 226 °C
Compound: Cc1cnc(C(=O)c2[nH]c3cc(Cl)ccc3c2CC(=O)O)s1 [Example 235, [6Chloro-2-(5-methylthiazole-2-carbonyl)-1H-indol-3-yl]acetic Acid]

melting point: 233 to 235 °C
Compound: Cc1cc(C)nc(C(=O)c2[nH]c3ccc(Cl)cc3c2CC(=O)O)c1 [Example 120, [5-Chloro-2-(4,6-dimethylpyridine-2-carbonyl)-1H-indol-3-yl]acetic Acid]

melting point: 195.9 °C
Compound: Cc1ccnc(C(=O)c2[nH]c3ccc(Cl)cc3c2CC(=O)NCCO)c1 [Example 269, [5-Chloro-2-(4-methylpyridine-2-carbonyl)-1H-indol-3-yl]-N-(2-hydroxyethyl)acetamide]

melting point: 229 to 230 °C
Compound: CC(C)(O)c1ccoc1C(=O)c1[nH]c2cc(Cl)ccc2c1CC(=O)O [Example 238, [6-Chloro-2-[3-(1-hydroxy-1-methylethyl)-2-furoyl]1H-indol-3-yl]acetic Acid]

melting point: 245 to 246 °C
Compound: Cc1cnc(C(=O)c2[nH]c3ccc(Cl)cc3c2CC(=O)O)cc1C [Example 102, [5-Chloro-2-(4,5-dimethylpyridine-2-carbonyl)-1H-indol-3-yl]acetic Acid]

melting point: 253 to 255 °C
Compound: Cc1cc(C(=O)c2[nH]c3ccc(Cl)cc3c2CC(=O)O)no1 [Example 225, [5-Chloro-2-(5-methylisoxazole-3-carbonyl)-1H-indol-3-yl]acetic Acid]

melting point: 215 to 216 °C
Compound: Cc1nnsc1C(=O)c1[nH]c2cc(Cl)ccc2c1CC(=O)O [Example 231, [6-Chloro-2-(4-methyl-1,2,3-thiadiazole-5-carbonyl)-1H-indol-3-yl]acetic Acid]

melting point: 165.7 °C
Compound: Cc1ccnc(C(=O)c2[nH]c3ccc(Cl)cc3c2CC(=O)NCCN)c1 [Example 272, [5-Chloro-2-(4-methylpyridine-2-carbonyl)-1H-indol-3-yl]-N-(2-aminoethyl)acetamide]

melting point: 229 to 230 °C
Compound: Cc1nnsc1C(=O)c1[nH]c2ccc(Cl)cc2c1CC(=O)O [Example 229, [5-Chloro-2-(4-methyl-1,2,3-thiadiazole-5-carbonyl)-1H-indol-3-yl]acetic Acid]

melting point: 179 to 182 °C
Compound: O=C(O)Cc1c(C(=O)c2ccc(Cl)c(F)c2)[nH]c2cc(Cl)ccc12 [Example 204, [6-Chloro-2-(4-chloro-3-fluorobenzoyl)-1H-indol-3-yl]acetic Acid]

melting point: 239 to 240 °C
Compound: O=C(O)Cc1c(C(=O)c2cc3ccccc3cn2)[nH]c2ccc(Cl)cc12 [Example 221, [5-Chloro-2-(isoquinoline-3-carbonyl)-1H-indol-3-yl]acetic Acid]

melting point: 124 to 127 °C
Compound: CCOC(=O)C=Cc1ccc(Cl)cc1NS(=O)(=O)c1ccc(C)cc1 [Example 293, 3-[4-Chloro-2-(toluene-4-sulfonylamino)-phenyl]-acrylic Acid Ethyl Ester]

melting point: 212 to 213 °C
Compound: COCc1ccoc1C(=O)c1[nH]c2cc(Cl)ccc2c1CC(=O)O [Example 240, [6-Chloro-2-[3-methoxymethyl-2-furoyl]-1H-indol-3-yl]acetic Acid]

melting point: 236 to 237 °C
Compound: O=C(O)Cc1c(C(=O)c2cc3ccccc3cn2)[nH]c2cc(Cl)ccc12 [Example 223, [6-Chloro-2-(isoquinoline-3-carbonyl)-1H-indol-3-yl]acetic Acid]
